Experimental findings from ChEMBL document CHEMBL3244037, “6-Aryl-4H-s-triazolo[4,3-a][1,4]benzodiazepines. Influence of 1-substitution on pharmacological activity” (J Med Chem, 1979) are described below.

For experiment [1], the system named is Mus musculus. Kind of experiment: Hypothermic activity in ip dosed albino CF1 mouse assessed as effect on body temperature measured after 45 mins. The class given is functional. Conditions: 0.75 h.
The subject of experiment [2] is Mus musculus. Kind of experiment: Inhibition of apomorphine-induced cage climbing in ip dosed albino CF1 mouse compound administered prior to challenge measured for 5 mins after 5 mins of challenge. The class given is functional.
For experiment [3], the system named is Mus musculus. The experiment is described as follows: Anticonvulsant activity in ip dosed albino CF1 mouse assessed as inhibition of bicucullin-induced tonic extensor convulsions. The class given is functional.
The test system of experiment [4] is Mus musculus. Kind of experiment: […] activity in ip dosed albino CF1 mouse assessed as potentiation of gamma-butyrolactone-induced sleep. The class given is functional.
Experiment [5] deals with Mus musculus. The experiment is described as follows: Reduction of hypoxic stress in ip dosed albino CF1 mouse assessed as prolongation of hypoxic survival time. The class given is functional.
The test system of experiment [6] is Mus musculus. Kind of experiment: Inhibition of amphetamine aggregation toxicity in ip dosed albino CF1 mouse compound administered 1 hr prior to challenge measured after 2 hrs. The class given is functional.
For experiment [7], the system named is Mus musculus. The experiment is described as follows: Potentiation of yohimbine toxicity in ip dosed aggregated albino CF1 mouse. The class given is organism-based.
In experiment [8] the test system is Mus musculus. Kind of experiment: Inhibition of oxotremorine-induced hypothermia in ip dosed albino CF1 mouse. The class given is functional.
In experiment [9] the test system is Mus musculus. The experiment is described as follows: Potentiation of apomorphine-induced gnawing in ip dosed albino CF1 mouse. The class given is organism-based.
Experiment [10] deals with Mus musculus. Kind of experiment: Anticonvulsant activity in ip dosed albino CF1 mouse assessed as protection against pentylenetetrazole-induced clonic convulsions. The class given is functional.

Take `N#Cc1nnc2n1-c1ccc(Cl)cc1C(c1ccccc1)=NC2`: the ED50 was 10 mg/kg with Mus musculus [1]; more than 50 mg/kg in the experiment on Mus musculus [2]; 3 mg/kg with Mus musculus [3]; 4 mg/kg with Mus musculus [4]; more than 50 mg/kg with Mus musculus [5]; more than 50 mg/kg in the experiment with Mus musculus [6]. In addition, the ED50 in the experiment with Mus musculus [7], in the experiment on Mus musculus [8] and in the experiment on Mus musculus [9] was more than 50 mg/kg in each case.
`CC1=NC(c2ccccc2)c2cc(Cl)ccc2-n2c1nnc2N1CCN(C)CC1` (centres undefined): the ED50 in the experiment with Mus musculus [10], in the experiment on Mus musculus [1], in the experiment with Mus musculus [2], with Mus musculus [3], with Mus musculus [4] and in the experiment with Mus musculus [6] was more than 50 mg/kg in each case. Also, the ED50 is more than 50 mg/kg with Mus musculus [7], 40 mg/kg with Mus musculus [8] and more than 50 mg/kg in the experiment on Mus musculus [9].
For the compound `CC1=NC(c2ccccc2)c2cc(Cl)ccc2-n2c1nnc2N1CCOCC1` (centres undefined), the ED50 in the experiment on Mus musculus [10], in the experiment with Mus musculus [1], in the experiment with Mus musculus [2], in the experiment on Mus musculus [3], with Mus musculus [4] and in the experiment on Mus musculus [6] was more than 50 mg/kg each time. Moreover, the ED50 with Mus musculus [7], in the experiment on Mus musculus [8] and with Mus musculus [9] was more than 50 mg/kg throughout.
Consider `CN1CCN(c2nnc3n2-c2ccc(Cl)cc2C(c2ccccc2Cl)=NC3)CC1`, for which the ED50 was 0.03 mg/kg in the experiment with Mus musculus [10]; 3.1 mg/kg with Mus musculus [1]; more than 50 mg/kg in the experiment on Mus musculus [2]; 0.06 mg/kg with Mus musculus [3]; 0.035 mg/kg in the experiment with Mus musculus [4]; 0.011 mg/kg in the experiment on Mus musculus [5]. The ED50 in the experiment with Mus musculus [6] is more than 50 mg/kg; in the experiment with Mus musculus [7] it was 35.4 mg/kg; in the experiment on Mus musculus [8], 4.4 mg/kg; in the experiment on Mus musculus [9], more than 50 mg/kg.
For `Clc1ccc2c(c1)C(c1ccccc1Cl)=NCc1nnc(N3CCOCC3)n1-2`, the ED50 in the experiment with Mus musculus [10] is 0.06 mg/kg; with Mus musculus [1] it was 6 mg/kg; in the experiment on Mus musculus [2], more than 50 mg/kg; in the experiment on Mus musculus [3], 0.05 mg/kg; in the experiment with Mus musculus [4] it was 0.04 mg/kg; with Mus musculus [5], 0.06 mg/kg. For the same compound, the ED50 in the experiment with Mus musculus [6], in the experiment with Mus musculus [7], in the experiment with Mus musculus [8] and in the experiment on Mus musculus [9] was more than 50 mg/kg each time.
On to `OCc1nnc2n1-c1ccc(Cl)cc1C(c1ccccc1Cl)=NC2`, for which the ED50 was 0.045 mg/kg in the experiment on Mus musculus [10]; 7 mg/kg in the experiment on Mus musculus [1]; more than 50 mg/kg in the experiment with Mus musculus [2]; 0.02 mg/kg in the experiment with Mus musculus [3]; 0.01 mg/kg in the experiment with Mus musculus [4]; 0.06 mg/kg with Mus musculus [5]. Also, the ED50 with Mus musculus [6], in the experiment with Mus musculus [7], in the experiment with Mus musculus [8] and in the experiment on Mus musculus [9] was more than 50 mg/kg each time.
In the case of `Cc1nnc2n1-c1ccc(Br)cc1C(c1ccccn1)=NC2`, the ED50 in the experiment with Mus musculus [10] is 0.12 mg/kg; in the experiment with Mus musculus [3] it was 0.24 mg/kg; in the experiment with Mus musculus [4] it was 0.035 mg/kg; in the experiment on Mus musculus [7] it was more than 50 mg/kg; in the experiment with Mus musculus [8], more than 50 mg/kg; in the experiment on Mus musculus [9], more than 50 mg/kg.
In the case of `CN(C)CCCN1c2ccccc2Sc2ccc(Cl)cc21` [CHLORPROMAZINE], the ED50 with Mus musculus [10] is more than 50 mg/kg; in the experiment on Mus musculus [1], 1 mg/kg; in the experiment with Mus musculus [2], 1 mg/kg; in the experiment on Mus musculus [3] it was 50 mg/kg; in the experiment with Mus musculus [4] it was 0.5 mg/kg; in the experiment on Mus musculus [5], more than 50 mg/kg. The figures for the ED50 with Mus musculus [6], with Mus musculus [8] and with Mus musculus [9] were 1 mg/kg, 0.9 mg/kg and 1 mg/kg, respectively.
For the compound `CN(C)CCCN1c2ccccc2CCc2ccccc21.Cl` [IMIPRAMINE HYDROCHLORIDE], the ED50 with Mus musculus [1] is more than 50 mg/kg; with Mus musculus [3], 21 mg/kg; in the experiment with Mus musculus [4], 18 mg/kg; with Mus musculus [6], more than 50 mg/kg; with Mus musculus [7] it was 4 mg/kg; in the experiment on Mus musculus [8], 1 mg/kg. Moreover, the ED50 in the experiment with Mus musculus [9] stood at 1 mg/kg.
In the case of `Cc1nnc2n1-c1ccc(Cl)cc1C(c1ccccc1Cl)=NC2` [TRIAZOLAM], the ED50 in the experiment with Mus musculus [10] is 0.07 mg/kg; with Mus musculus [5], 0.07 mg/kg; with Mus musculus [7], more than 50 mg/kg; with Mus musculus [8], more than 50 mg/kg; in the experiment on Mus musculus [9], more than 50 mg/kg.
